Test results taken from paper PMC10826971, “Evaluating protein cross-linking as a therapeutic strategy to stabilize SOD1 variants in a mouse model of familial ALS” (PLOS Biology, 2024).
Several values for one entry are separate records, joined by “and”; a condition that tells them apart may be missing. Equal values may be shown once. Entries after “also recorded” stand apart in the source; their conditions may differ.

Experiments:
wild-type SOD1 = wild-type SOD1 (Homo sapiens, UniProt P00441); assay: SOD1 cross-linking in Hep G2 cells, SDS-PAGE and western blot; assay type: cell-based; conditions: Hep G2 cells in PBS buffer, 30 min
Procedure: The Hep G2 human hepatocarcinoma cell line (American Type Culture Collection, ATCC, Manassas, Virginia, USA) was cultured using complete EMEM (Eagle’s minimal essential medium, ATCC) media including 10% FBS (fetal bovine serum, ATCC) and 1% penicillin streptomycin (10,000 units/mL penicillin and 10,000 μg/mL streptomycin, Fisher Scientific, Hampton, New Hampshire, USA). Cells were counted and checked for morphology using an inverted Carl Zeiss microscope (Carl Zeiss Microscopy LLC, White Plains, New York, USA). A 96-well plate (Corning Life Sciences, Tewksbury, Massachusetts, USA) was used for culturing cells at 0.2 mill/mL concentration for 24 h at 37°C, 5% CO2 under controlled humidity for western blot experiment. […] Wild-type SOD1 purified from human erythrocyte (Sigma Aldrich, St. Louis, Missouri, USA) was used as positive control (standard) in the experiment. The growth buffer was aspirated and replaced with 30 μL of lysis buffer (150 mM NaCl, 1% Triton X-100, 0.5% sodium deoxycholate, 0.1% SDS, and 50 mM Tris (pH 8.0), all chemicals were purchased from Sigma Aldrich (St. Louis, Missouri, USA)) and incubated for 10 min followed by addition of non-reducing sample buffer. […]

in vivo = conditions: C57BL/6, mouse
Procedure: (§1) Any clinical abnormalities including but not limited to ruffled fur, unstable gait, severe lethargy, and mortality was observed after dosing. The post-dose washout period was maintained for 48 h for both PO, IV, and SC route of administration.

C57BL/6 mice = assay: in vivo; conditions: mouse
Procedure: as §1

[1] = test system: alpha 1-acid glycoprotein; assay type: in vitro ADME
SOD1^G93A = SOD1^G93A (Homo sapiens, UniProt P00441, G94A); assay: Pharmacodynamic profiling: cross-linked SOD1^G93A dimer in blood (RBC) by LC-MS; assay type: in vivo, mouse; design: Extraction of SOD1^G93A from red blood cell (RBC) protein was performed as previously described; tissue Jackson Laboratory 002726; host or cells: red blood cells of transgenic B6SJL-Tg(SOD1*G93A)1Gur/J mice; conditions: for % Dimer (cross-linked SOD1^G93A in blood): 10 mg/kg IV single dose
[2] = test system: NSC-34 cells expressing EGFP-WT-SOD1; assay: Determination of cells containing inclusions; assay type: cell-based, mouse; design: Inclusion Formation: unit not given here; conditions: for Inclusion Formation: WT, 48 h, replicates
Procedure: (§2) Transfected NSC-34 cells were plated out into 96-well plates and left overnight. […] Cells were then fixed using 4% (w/v) paraformaldehyde in 1×PBS for 20 min. Plates for imaging were then processed as previously described with some changes. Cells were imaged using a DMi8 epifluorescent microscope (Leica, Germany) fitted with a Mercury Arc Lamp, a 10× 0.25NA (CAT NO) air objective and an automated stage. A software-based autofocus strategy was utilized to focus on the GFP signal within cells, with a subsequent image being taken in the DAPI channel to view Hoescht-stained nuclei. Relative focus correction was applied between channels to offset emission wavelength effects to the focal plane. Following image acquisition, images were corrected for illumination variation via a background method and processed using a combination of FIJI [66], StarDist, CellProfiler, and CellProfiler Analyst as previously described.

[3] = test system: NSC-34 cells expressing EGFP-G93A; assay: Determination of cells containing inclusions; assay type: cell-based, mouse; design: Inclusion Formation: unit not given here; conditions: for Inclusion Formation: G93A, 48 h, replicates
Procedure: as §2

SOD1 variants [4] = target: T1, SOD1 variants (Homo sapiens, UniProt P00441, H47R); assay: Plate-based and gel-based SOD1 enzymatic activity assays (results in words); assay type: biochemical; conditions: plate-based and gel-based assays
T1 construct: made in house; host or cells: EGy118ΔSOD1 yeast, YEp351 expression vector
Procedure: (§3) Enzymatic activity of SOD1 variants were assessed using a gel-based assay with riboflavin and nitroblue tetrazolium (NBT) as previously described. […] The samples were mixed with native sample buffer (Bio-Rad) in a 1:1 ratio and were loaded into each well to a 12% polyacrylamide gel (Bio-Rad). The gel was stained in dark using 50 mM potassium phosphate (pH 7.8), 0.13 mg/mL of NBT, and 0.1 mg/mL of riboflavin for 45 min. The gel was exposed to light for with 1 μL/mL of N,N,N^′,N^′-tetramethylethylenediamine (TEMED) for 2 min. SOD1 activity can be seen as colorless bands as the SOD1 scavenges the superoxide that inhibits insoluble blue color formazan formation.
(§4) All samples were prepared as described in gel-based enzymatic activity assay section and were (10 μL) mixed with 160 μL of solution A (6,000 units/mL catalase, 10 mM hypoxanthine, and 5 mM XTT) and 160 μL of solution B (xanthine oxidase 16 mg/mL) in a flat-bottom 96-well plate and was monitored for absorbance at 490 nm for 30 min. All samples were analyzed in technical triplicate using slope function in Microsoft Excel.

SOD1 variants [5] = assay: as above; assay type: biochemical, human
Procedure: as §3, §4

Chain of SOD1^G93A (P00441 2-154 G94A limits assumed): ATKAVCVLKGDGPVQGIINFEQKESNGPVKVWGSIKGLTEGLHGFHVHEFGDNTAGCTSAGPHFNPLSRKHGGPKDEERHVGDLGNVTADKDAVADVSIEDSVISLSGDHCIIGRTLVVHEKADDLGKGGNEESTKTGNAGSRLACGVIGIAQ
T1 sequence (P00441 2-154 H47R): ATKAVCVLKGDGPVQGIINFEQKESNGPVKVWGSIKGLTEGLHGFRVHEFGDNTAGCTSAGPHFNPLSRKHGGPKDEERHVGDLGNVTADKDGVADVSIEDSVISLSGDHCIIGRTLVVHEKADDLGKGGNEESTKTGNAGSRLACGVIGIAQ
Chain of wild-type SOD1 (P00441 2-154 limits assumed): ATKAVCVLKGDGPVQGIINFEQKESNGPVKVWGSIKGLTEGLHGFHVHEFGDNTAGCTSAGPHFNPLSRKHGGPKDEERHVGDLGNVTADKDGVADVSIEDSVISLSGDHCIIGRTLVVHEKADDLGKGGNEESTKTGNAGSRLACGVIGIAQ

[O-][S+]1CCCCS1 (stereo not drawn) [S-XL6, 1,2-dithiane-1-oxide]
EC50 (wild-type SOD1): ~5 µM
LD50 at 48 h (in vivo; iv): 75 mg/kg
LD50 at 48 h (in vivo; po): 1000 mg/kg
LD50 at 48 h (in vivo; sc): 275 mg/kg
mortality in up-down study (C57BL/6 mice; iv, 55 mg/kg): One mouse died
mortality in up-down study (C57BL/6 mice; iv, 60 mg/kg): another mouse died
mortality in up-down study (C57BL/6 mice; sc, 60 mg/kg): one mouse died
binding to purified protein [1]: not bound
% Dimer (cross-linked SOD1^G93A in blood) (SOD1^G93A; 0.5 h post dose): 38%
% Dimer (cross-linked SOD1^G93A in blood) (SOD1^G93A; 1 h post dose): 63%
% Dimer (cross-linked SOD1^G93A in blood) (SOD1^G93A; 2 h post dose): 55%
% Dimer (cross-linked SOD1^G93A in blood) (SOD1^G93A; 4 h post dose): 53%
% Dimer (cross-linked SOD1^G93A in blood) (SOD1^G93A; 8 h post dose): 51%
% Dimer (cross-linked SOD1^G93A in blood) (SOD1^G93A; 12 h post dose): 42%
% Dimer (cross-linked SOD1^G93A in blood) (SOD1^G93A; 24 h post dose): 26%
% Dimer (cross-linked SOD1^G93A in blood) (SOD1^G93A; 48 h post dose): 20%
% Dimer (cross-linked SOD1^G93A in blood) (SOD1^G93A; 72 h post dose): 16%
% Dimer (cross-linked SOD1^G93A in blood) (SOD1^G93A; […] post dose): 6%
Target engagement in blood and brain (SOD1^G93A; G93A fALS mouse): SOD1 dimer formation in G93A fALS mouse blood and brain
aggregation of EGFP-labeled wild-type SOD1 [2]: increased cellular aggregation; also recorded: accelerate the aggregation
Inclusion Formation ([2]; 5 uM): 0.4215 and 0.8811 and 2.367 and 0.4188 and 0.4044
Inclusion Formation ([2]; 10 uM): 0.8155 and 1.677 and 1.595 and 4.094 and 2.381
Inclusion Formation ([2]; 20 uM): 9.589 and 4.535 and 7.818 and 6.78 and 6.154
aggregation of EGFP-labeled G93A [3]: did not affect
Inclusion Formation ([3]; 5 uM): 5.34 and 6.771 and 14.6572 and 11.1111 and 8.602
Inclusion Formation ([3]; 10 uM): 6.731 and 9.113 and 13.3487 and 16.0367 and 12.7358
Inclusion Formation ([3]; 20 uM): 8.219 and 11.7978 and 11.4911 and 10.411 and 12.1547
enzymatic activity of SOD1^H46R after cross-linking (SOD1 variants [4]): No change in activity; also recorded: did not affect
Enzymatic activity (SOD1 variants [5]; cross-linked fALS SOD1 variants, summary table): Activity of cross-linked quaternary structures of fALS SOD1 variants are more comparable to uncross-linked wild-type SOD1
enzymatic activity of SOD1^A4V, SOD1^G93A and SOD1^G85R after cross-linking (SOD1 variants [5]; plate-based and gel-based assays): levels comparable to that of wild-type SOD1; also recorded: increased to that of wild-type SOD1
